Results taken from US3995062A, “Halocyclopropyl halomethyl ethers” (priority 1975, dated 1976).

Tested on: Mice
Assay: Standard test for evaluation of inhalation anesthetics (mice in rotating drum; AC50, LC50, anesthetic index)
Format: in vivo
Details: 10 minutes exposure; for Anesthetic index AI (LC50/AC50): calculated from LC50 and AC50; for AC50 (minimum concentration required to anesthetize 50% of the mice) / LC50 (minimum concentration required to kill 50% of the mice): when two figures are given, the actual parameter lies between them
Procedure: Mice were exposed to the anesthetic for a period of 10 minutes in a rotating drum. Observations were then made of the pinch reflex, the corneal reflex and the return of the righting reflex. At least four graded doses were employed to determine the minimum concentration required to anesthetize 50% of the mice used (AC50) and the minimum concentration required to kill 50% of the mice (LC50). The anesthetic index (AI) was then calculated from these minimum concentrations.

| SMILES | Anesthetic index AI (LC50/AC50) | AC50 (minimum concentration required to anesthetize 50% of the mice) | LC50 (minimum concentration required to kill 50% of the mice) |
| --- | --- | --- | --- |
| FC(Cl)OC1(F)C(F)(F)C1(F)Cl (stereo not drawn) [Example 8, 1-chloro-2-chlorofluoromethoxy-1,2,3,3-tetrafluorocyclopropane] | 4-5 | 2 % volume | 8-10 % volume |
| FC(Cl)OC1(F)C(F)(F)C1(F)Br (stereo not drawn) [Example 10, 1-bromo-2-chlorofluoromethoxy-1,2,3,3-tetrafluorocyclopropane] | ~ 2 | 2-4 % volume | 6-8 % volume |
| FC(F)OC1(F)C(F)(F)C1(F)Br (stereo not drawn) [Example 9, 1-bromo-2-difluoromethoxy-1,2,3,3-tetrafluorocyclopropane] | > 4 | 1 % volume | > 4 % volume |
| FC(F)OC1(F)C(F)(F)C1(F)Cl (stereo not drawn) [Example 7, 1-chloro-2-difluoromethoxy-1,2,3,3-tetrafluorocyclopropane] | > 1 | 2-10 % volume | > 10 % volume |
